Measurements: patent US9926281B2 (priority 2014, dated 2018)

Assays:
human MMP13 = human MMP13 (Homo sapiens (Human), UniProt P45452); conditions: read-out: hMMP-13 potency IC50
Experimental: Human MMP13 is preactivated by incubated the enzyme in the same buffer complemented with 1 mM freshly prepared p-Aminophenylmercuric acetate (AMPA) for 1 hour at 37° C.

human TACE = human TACE (Homo sapiens (Human), UniProt P78536); conditions: read-out: TACE potency IC50
human ADAMTS-5 = human ADAMTS-5 (Homo sapiens (Human), UniProt Q9UNA0); conditions: read-out: hADAMTS-5 potency IC50
Sequence of human ADAMTS-5 (Q9UNA0 262-930): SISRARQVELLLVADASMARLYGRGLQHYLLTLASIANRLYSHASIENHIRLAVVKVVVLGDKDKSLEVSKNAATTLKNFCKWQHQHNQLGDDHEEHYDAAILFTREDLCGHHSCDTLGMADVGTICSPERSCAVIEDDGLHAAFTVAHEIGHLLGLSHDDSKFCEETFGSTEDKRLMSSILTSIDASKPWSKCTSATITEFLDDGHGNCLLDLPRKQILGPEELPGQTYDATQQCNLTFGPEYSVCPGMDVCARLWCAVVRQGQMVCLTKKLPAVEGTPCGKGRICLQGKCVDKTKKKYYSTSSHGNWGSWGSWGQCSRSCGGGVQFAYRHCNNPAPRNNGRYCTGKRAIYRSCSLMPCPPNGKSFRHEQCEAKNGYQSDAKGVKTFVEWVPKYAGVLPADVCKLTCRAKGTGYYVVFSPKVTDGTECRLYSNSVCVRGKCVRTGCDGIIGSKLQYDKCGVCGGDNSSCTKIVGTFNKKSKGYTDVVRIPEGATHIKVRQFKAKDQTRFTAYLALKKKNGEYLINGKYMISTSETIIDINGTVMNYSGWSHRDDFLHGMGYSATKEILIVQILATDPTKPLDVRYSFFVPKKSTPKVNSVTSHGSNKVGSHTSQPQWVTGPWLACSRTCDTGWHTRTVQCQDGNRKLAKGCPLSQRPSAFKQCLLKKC
Experimental: Finally, the fluorescence is read on the Envision (Perkin Elmer) after an incubation of 90 min at 37° C.

Sequence of human TACE (P78536 whole entry, looked up, change not shown): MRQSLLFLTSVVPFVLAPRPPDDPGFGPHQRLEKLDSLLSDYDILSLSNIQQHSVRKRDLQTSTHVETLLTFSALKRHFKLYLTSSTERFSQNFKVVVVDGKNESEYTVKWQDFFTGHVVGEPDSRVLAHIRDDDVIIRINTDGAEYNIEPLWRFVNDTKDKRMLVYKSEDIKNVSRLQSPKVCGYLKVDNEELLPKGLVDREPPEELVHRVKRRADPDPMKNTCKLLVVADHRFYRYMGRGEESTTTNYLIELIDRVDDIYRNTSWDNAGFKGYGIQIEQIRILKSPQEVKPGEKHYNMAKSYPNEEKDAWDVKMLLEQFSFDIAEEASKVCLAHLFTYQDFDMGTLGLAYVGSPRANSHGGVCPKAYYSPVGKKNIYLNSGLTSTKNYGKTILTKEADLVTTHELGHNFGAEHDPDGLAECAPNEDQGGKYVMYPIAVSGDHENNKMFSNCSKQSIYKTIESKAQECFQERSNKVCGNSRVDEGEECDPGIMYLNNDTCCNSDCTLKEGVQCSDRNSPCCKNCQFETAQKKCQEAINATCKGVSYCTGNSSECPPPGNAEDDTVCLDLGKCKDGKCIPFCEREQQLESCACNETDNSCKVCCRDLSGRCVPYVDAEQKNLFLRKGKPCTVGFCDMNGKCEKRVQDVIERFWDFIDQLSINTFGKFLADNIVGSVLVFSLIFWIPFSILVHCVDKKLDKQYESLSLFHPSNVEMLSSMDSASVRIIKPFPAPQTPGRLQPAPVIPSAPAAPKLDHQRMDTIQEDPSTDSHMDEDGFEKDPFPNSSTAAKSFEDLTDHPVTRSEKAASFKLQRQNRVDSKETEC

SMILES	IC50 (human MMP13)	IC50 (human TACE)	IC50 (human ADAMTS-5)
CN(C)Cc1ccc(C2(CCC(=O)N3CCN(c4cccc(Cl)c4)CC3)NC(=O)NC2=O)cc1 (centres unmarked) [compound 83, 5-[3-[4-(3-chlorophenyl)piperazin-1-yl]-3-oxo-propyl]-5-[4-(dimethylaminomethyl)phenyl]imidazolidine-2,4-dione]	> 4000 nM	2490 nM	
CN(C)CC1(CCC(=O)N2CCN(c3cccc(Cl)c3)CC2)NC(=O)NC1=O (centres unmarked) [compound 118, 5-[3-[4-(3-chlorophenyl)piperazin-1-yl]-3-oxo-propyl]-5-(dimethylaminomethyl)imidazolidine-2,4-dione]	> 20000 nM	> 4000 nM	
Cc1ccc(Cl)cc1N1CCN(C(=O)CCC2(CN(C)C)NC(=O)NC2=O)CC1 (centres unmarked) [compound 120, 5-[3-[4-(5-chloro-2-methyl-phenyl)piperazin-1-yl]-3-oxo-propyl]-5-(dimethylaminomethyl)imidazolidine-2,4-dione]	> 20000 nM	> 4000 nM	
CCC1(CCC(=O)N2CCN(c3cccc(Cl)c3)CC2)NC(=O)NC1=O (centres unmarked) [compound 122, 5-[3-[4-(3-chlorophenyl)piperazin-1-yl]-3-oxo-propyl]-5-ethyl-imidazolidine-2,4-dione]	> 20000 nM	> 4000 nM	
CC1CN(C(=O)CCC2(c3cccnc3)NC(=O)NC2=O)CCN1c1cc(Cl)cc(Cl)c1 (centres unmarked) [compound 127, 5-[3-[4-(3,5-dichlorophenyl)-3-methyl-piperazin-1-yl]-3-oxo-propyl]-5-(3-pyridyl)imidazolidine-2,4-dione]	> 20000 nM	> 4000 nM	
CC1(CCC(=O)N2CCN(c3cc(F)cc(F)c3)CC2)NC(=O)NC1=O (centres unmarked) [compound 140, 5-[3-[4-(3,5-difluorophenyl)piperazin-1-yl]-3-oxo-propyl]-5-methyl-imidazolidine-2,4-dione]	> 4000 nM	> 20000 nM	
O=C1NC(=O)C(CCC(=O)N2CCN(c3cccc(Cl)c3)CC2)(CN2CCOCC2)N1 (centres unmarked) [compound 155, 5-[3-[4-(3-chlorophenyl)piperazin-1-yl]-3-oxo-propyl]-5-(morpholinomethyl)imidazolidine-2,4-dione]	> 20000 nM	> 20000 nM	1250 nM
C[C@H]1CN(C(=O)CCC2(C)NC(=O)NC2=O)CCN1c1ccc(F)c(F)c1 (stereo partly drawn) [compound 165, 5-[3-[(3S)-4-(3,4-difluorophenyl)-3-methyl-piperazin-1-yl]-3-oxo-propyl]-5-methyl-imidazolidine-2,4-dione]	> 20000 nM	> 20000 nM	207 nM
C[C@H]1CN(C(=O)CCC2(C)NC(=O)NC2=O)CCN1c1ccc(F)c(Cl)c1 (stereo partly drawn) [compound 166, 5-[3-[(3S)-4-(3-chloro-4-fluoro-phenyl)-3-methyl-piperazin-1-yl]-3-oxo-propyl]-5-methyl-imidazolidine-2,4-dione]	> 20000 nM	> 20000 nM	264 nM
NCC1(CCC(=O)N2CCN(c3cccc(Cl)c3)CC2)NC(=O)NC1=O (centres unmarked) [compound 171, 5-(aminomethyl)-5-[3-[4-(3-chlorophenyl)piperazin-1-yl]-3-oxo-propyl]imidazolidine-2,4-dione]	> 4000 nM	> 20000 nM	305 nM
O=C1NC(=O)C(CC(O)C(=O)N2CCN(c3cc(Cl)cc(Cl)c3)CC2)(C2CC2)N1 (centres unmarked) [compound 201, 5-cyclopropyl-5-[3-[4-(3,5-dichlorophenyl)piperazin-1-yl]-2-hydroxy-3-oxo-propyl]imidazolidine-2,4-dione]	> 20000 nM	> 20000 nM	307 nM
CC1(CC(CO)C(=O)N2CCN(c3cc(Cl)cc(Cl)c3)CC2)NC(=O)NC1=O (centres unmarked) [compound 220, 5-[3-[4-(3,5-dichlorophenyl)piperazin-1-yl]-2-(hydroxymethyl)-3-oxo-propyl]-5-methyl-imidazolidine-2,4-dione]	> 4000 nM	245 nM	18 nM
COCC1(CC(C)C(=O)N2CCN(c3cc(Cl)cc(Cl)c3)CC2)NC(=O)NC1=O (centres unmarked) [compound 222, 5-[3-[4-(3,5-dichlorophenyl)piperazin-1-yl]-2-methyl-3-oxo-propyl]-5-(methoxymethyl)imidazolidine-2,4-dione]	> 4000 nM	337 nM	20 nM
COCC1(CC(C)C(=O)N2CCN(c3cc(F)cc(F)c3)[C@@H](C)C2)NC(=O)NC1=O (stereo partly drawn) [compound 225, 5-[3-[(3S)-4-(3,5-difluorophenyl)-3-methyl-piperazin-1-yl]-2-methyl-3-oxo-propyl]-5-(methoxymethyl)imidazolidine-2,4-dione]	3940 nM	> 20000 nM	28 nM
CC(CC1(c2ccccn2)NC(=O)NC1=O)C(=O)N1CCN(c2cc(Cl)cc(Cl)c2)CC1 (centres unmarked) [compound 231, 5-[3-[4-(3,5-dichlorophenyl)piperazin-1-yl]-2-methyl-3-oxo-propyl]-5-(2-pyridyl)imidazolidine-2,4-dione]	766 nM	106 nM	20 nM
CCC(CC1(C)NC(=O)NC1=O)C(=O)N1CCN(c2cc(Cl)cc(Cl)c2)CC1 (centres unmarked) [compound 236, 5-[2-[4-(3,5-dichlorophenyl)piperazine-1-carbonyl]butyl]-5-methyl-imidazolidine-2,4-dione]	1220 nM	225 nM	15 nM
O=C1NC(=O)C(CCC(=O)N2CCN(c3cc(Cl)cc(Cl)c3)CC2)(c2ccccn2)N1 (centres unmarked) [compound 407, 5-(3-(4-(3,5-dichlorophenyl)piperazin-1-yl)-3-oxopropyl)-5-(pyridin-2-yl)imidazolidine-2,4-dione]	> 20000 nM	479 nM	
C[C@H]1CN(C(=O)CCC2(C3CC3)NC(=O)NC2=O)CCN1c1ccc(Cl)c(Cl)c1 (stereo partly drawn) [compound 408, 5-cyclopropyl-5-(3-((S)-4-(3,4-dichlorophenyl)-3-methylpiperazin-1-yl)-3-oxopropyl)imidazolidine-2,4-dione]	> 4000 nM	> 4000 nM	19 nM
CC(CC1(C2CC2)NC(=O)NC1=O)C(=O)N1CCN(c2cc(Cl)cc(Cl)c2)CC1 (centres unmarked) [compound 409, 5-cyclopropyl-5-(3-(4-(3,5-dichlorophenyl)piperazin-1-yl)-2-methyl-3-oxopropyl)imidazolidine-2,4-dione]	2740 nM	311 nM	17 nM
CC(CC1(C)NC(=O)NC1=O)C(=O)N1CCN(c2cc(Cl)cc(Cl)c2)CC1 (centres unmarked) [compound 410, 5-(3-(4-(3,5-dichlorophenyl)piperazin-1-yl)-2-methyl-3-oxopropyl)-5-methylimidazolidine-2,4-dione]	> 4000 nM	170 nM	22 nM
CC(CC1(C2CC2)NC(=O)NC1=O)C(=O)N1CCN(c2ccc(F)c(Cl)c2)[C@@H](C)C1 (stereo partly drawn) [compound 411, 5-(3-((S)-4-(3-chloro-4-fluorophenyl)-3-methylpiperazin-1-yl)-2-methyl-3-oxopropyl)-5-cyclopropylimidazolidine-2,4-dione]	865 nM	> 4000 nM	11 nM
CC(CC1(C2CC2)NC(=O)NC1=O)C(=O)N1CCN(c2ccc(Cl)cc2)[C@@H](C)C1 (stereo partly drawn) [compound 412, 5-(3-((S)-4-(4-chlorophenyl)-3-methylpiperazin-1-yl)-2-methyl-3-oxopropyl)-5-cyclopropylimidazolidine-2,4-dione]	433 nM	> 20000 nM	13 nM
CC(CC1(C2CC2)NC(=O)NC1=O)C(=O)N1CCN(c2cc(F)cc(Cl)c2)[C@@H](C)C1 (stereo partly drawn) [compound 413, 5-(3-((S)-4-(3-chloro-5-fluorophenyl)-3-methylpiperazin-1-yl)-2-methyl-3-oxopropyl)-5-cyclopropylimidazolidine-2,4-dione]	952 nM	> 4000 nM	11 nM
C[C@H]1CN(C(=O)CC[C@@]2(C)NC(=O)NC2=O)CCN1c1ccc(Cl)c(Cl)c1 [compound 414, (R)-5-(3-((S)-4-(3,4-dichlorophenyl)-3-methylpiperazin-1-yl)-3-oxopropyl)-5-methylimidazolidine-2,4-dione]	> 4000 nM	> 4000 nM	40 nM
CC(CC1(COCc2ccccc2)NC(=O)NC1=O)C(=O)N1CCN(c2cc(Cl)cc(Cl)c2)CC1 (centres unmarked) [compound 415, 5-(benzyloxymethyl)-5-(3-(4-(3,5-dichlorophenyl)piperazin-1-yl)-2-methyl-3-oxopropyl)imidazolidine-2,4-dione]	1300 nM	396 nM	28 nM
C[C@H]1CN(C(=O)CC[C@@]2(C3CC3)NC(=O)NC2=O)CCN1c1ccc(Cl)c(Cl)c1 [compound 416, 5-cyclopropyl-5-(3-((S)-4-(3,4-dichlorophenyl)-3-methylpiperazin-1-yl)-3-oxopropyl)imidazolidine-2,4-dione]	2880 nM	> 4000 nM	12 nM
CC(CC1(C)NC(=O)NC1=O)C(=O)N1CCN(c2cc(F)cc(Cl)c2)[C@@H](C)C1 (stereo partly drawn) [compound 418, 5-(3-((S)-4-(3-chloro-5-fluorophenyl)-3-methylpiperazin-1-yl)-2-methyl-3-oxopropyl)-5-methylimidazolidine-2,4-dione]	> 4000 nM	> 4000 nM	33 nM
CC(CC1(C)NC(=O)NC1=O)C(=O)N1CCN(c2cc(Cl)cc(Cl)c2)[C@@H](C)C1 (stereo partly drawn) [compound 420, 5-(3-((S)-4-(3,5-dichlorophenyl)-3-methylpiperazin-1-yl)-2-methyl-3-oxopropyl)-5-methylimidazolidine-2,4-dione]	> 14000 nM	2980 nM	32 nM
CC(CC1(C)NC(=O)NC1=O)C(=O)N1CCN(c2ccc(F)c(Cl)c2)[C@@H](C)C1 (stereo partly drawn) [compound 422, 5-(3-((S)-4-(3-chloro-4-fluorophenyl)-3-methylpiperazin-1-yl)-2-methyl-3-oxopropyl)-5-methylimidazolidine-2,4-dione]	2330 nM	> 4000 nM	21 nM
